The source of these data is US10086007B2, “Materials and methods for treatment of cystic fibrosis and for induction of ion secretion” (priority 2012, dated 2018).

Assay [1] deals with Caco-2 cells. Put plainly: Confocal Ca2+ fluorescence microscopy (Fluo-8). The assay is classed as cell-based. As to the method: Caco-2 cells are obtained from ATTC and cultured in Dulbecoo's modified Eagle's medium supplemented with 10% fetal calf serum (FCS) and 1% nonessential amino acids at 37° C. and 5% CO2. Caco-2 cells are passaged for 20-25 times and are seeded (2×10^5 cells/dish) on 5 cm petri-dishes and grown until 80% confluence, when the FCS concentration is changed to 5%. Cells are grown for another 10 days before they are used for functional studies.
Caco2 cells grown in 25 mm round coverslips are mounted on the bath chamber RC-21BR attached to series 20 stage adapter (Warner Instruments, CT USA). The cells are maintained at 37° C. using a single channel table top heater controller (TC-324B, Warner Instruments, CT USA). Cells are loaded with the fluorescent calcium indicator Fluo-8 AM dye (Cat #0203, TEFLab, Inc., Austin, Tex. USA) at 0.5 μM concentration at room temperature and incubated for 45 minutes. Confocal laser scanning microscopy is performed using an inverted Fluoview 1000 IX81 microscope (Olympus, Tokyo, Japan) and a U Plan S-Apo 20× objective. Fluorescence is recorded by argon lasers with excitation at 488 nm and emission at 515 nm. The Fluorescent images are collected with scanning confocal microscope. […] Changes are recorded and fluorescence is measured for various cells. […]

The test system of the next assay is ileal mucosa. The assay is classed as cell-based, mouse. From the text: Normally fed, 8-week-old, male NIH Swiss mice are sacrificed by CO2 inhalation, followed by cervical dislocation. The small intestine is gently removed, and the segment is washed and flushed in ice-cold Ringer's solution. Then the mucosa is separated from the serosa and the muscular layers by stripping through the submucosal plane as previously described (Zhang et al. (2007) J Physiol 581(3):1221-1233). Following exsanguinations, ileal mucosa is obtained from a 10 cm segment close to the caecum. All experiments are approved by the University of Florida Institutional Animal Care and Use Committee.
Ion transport studies are performed on ileal sheets. Tissues are then mounted in between the two halves of an Ussing type-Lucite chamber with 0.3 cm^2 exposed surface areas (P2304, Physiologic Instruments, San Diego, Calif., USA). Regular Ringer's solution (115 mM NaCl, 25 mM NaHCO3, 4.8 mM K2HPO4, 2.4 mM KH2PO4, 1.2 mM MgCl2 and 1.2 mM CaCl2) bubbled with 95% O2: 5% CO2 is used bilaterally as bathing solution for the tissues and the temperature is maintained constant at 37° C. The chambers are balanced to eliminate osmotic and hydrostatic forces. Resistance due to fluid is also compensated. The tissues are allowed to stabilize. The basal short-circuit current (Isc) and the corresponding conductance (G) are recorded using a computer controlled voltage/current clamp device (VCC MC-8, Physiologic Instruments).
The tissues are incubated with H-89 for 30 minutes. Increasing concentrations of glucose (0.015-8 mM) are added every 5 minutes and the peak current is noted. Saturation kinetic constant is calculated for the corresponding Km and Vmax for treated and untreated tissues.

A further assay has as its system NFA-sensitive current. Put plainly: Isc with NSP4 peptide and glucose (FIG. 6). Format: cell-based.
Another assay concerns chloride secretion. Put plainly: Chloride secretion with NSP4 peptide and glucose (FIG. 7). Format: cell-based.
The subject of assay [2] is Caco-2 cells. In words: Gramicidin perforated whole cell currents (patch clamp). Conditions: in the continued presence of glucose. Format: cell-based. Further details: dose or concentration left out as unconfirmed.
Assay [3] relates to Caco-2 cells. Put plainly: Ussing chamber Isc in Caco-2 cells grown on permeable inserts. Format: cell-based. As to conditions: added to the apical side of Caco-2 cells. As to the method:
Caco-2 cells are obtained from ATTC and cultured in Dulbecoo's modified Eagle's medium supplemented with 10% fetal calf serum (FCS) and 1% nonessential amino acids at 37° C. and 5% CO2. […] Cells are grown for another 10 days before they are used for functional studies.

Another assay relates to small intestine cells. In words: Glucose-induced HCO3- secretion in small intestine cells. The assay is classed as cell-based. The arrangement: dose or concentration left out as unconfirmed.

The structures appear in SMILES notation.

Consider `CO[C@@H]([C@H](O)[C@H](O)CO)[C@@H](O)C=O` [3-OMG, 3-O-methylglucose], for which the “intracellular Ca^2+ increase compared to similar concentration of glucose” value with Caco-2 cells [1] is “little increase”. For the same compound, the “Vmax of Isc increase” value with ileal mucosa (increasing concentration added to lumen side, Michaelis-Menten fit, n=6 tissues) was determined as 1.9±0.13 μeq·h^−1·cm^−2. Moreover, in the assay on ileal mucosa (increasing concentration added to lumen side, Michaelis-Menten fit, n=6 tissues, read-out: Km of Isc increase), the Km turned out to be 220 ± 70 µM.

Consider `O=C(O)CN(CC(=O)O)c1ccccc1OCCOc1ccccc1N(CC(=O)O)CC(=O)O` [BAPTA], for which the “glucose-stimulated increase in intracellular Ca^2+ after pre-incubation” value in the assay on Caco-2 cells [1] (pre-incubating the cells 45 minutes with BAPTA) is listed as “fails to show a glucose-stimulated increase”.

As to `O=S(=O)(NCCNC/C=C/c1ccc(Br)cc1)c1cccc2cnccc12` [H89, H-89], in the assay with ileal mucosa (pre-treatment of small intestine cells with PKA inhibitor), the “effect on glucose-stimulated net increase in Isc” value is “significant reduction”.

Consider `O=C(O)c1cccnc1Nc1cccc(C(F)(F)F)c1` [NFA, niflumic acid], for which the “inhibition of anion secretion induced by NSP4 peptide and glucose” value in the assay on NFA-sensitive current is listed as “not completely inhibited”. For the same compound, the “effect on NSP4114-135-stimulated current” value in the assay with NFA-sensitive current (NFA 100 μM) is “abolishes”. In addition, the “inhibition of chloride secretion induced by NSP4 peptide and glucose” value in the assay on chloride secretion is reported as “not completely inhibited”. Besides, the “effect on glucose activated inward current” value with Caco-2 cells [2] was “inhibits the glucose activated inward current”. The “inhibition of glucose-stimulated increase in Isc” value in the assay on ileal mucosa (100 μM to the lumen side, 8 mM glucose) is recorded as “partial inhibition”; in the assay on Caco-2 cells [3] it was “significant inhibition”.

As to `O=C(O)c1cc([N+](=O)[O-])ccc1NCCCc1ccccc1` [NPPB], the “inhibition of glucose-induced, anion channel-mediated HCO3^− secretion” value with small intestine cells (NPPB) is listed as “significant inhibition”. Further, the “glucose-induced, anion channel-mediated HCO3^− secretion” value in the assay with small intestine cells (with NPPB) stood at 4.2±0.7 mEq·h^−1·cm^−2.

In the case of `O=C(CCc1ccc(O)cc1)c1c(O)cc(O)cc1O[C@@H]1O[C@H](CO)[C@@H](O)[C@H](O)[C@H]1O` [phlorizin], the “Isc response to increasing glucose in pre-treated tissues” value in the assay with ileal mucosa (tissues pre-treated with phlorizin) is on record as “no response to glucose”.
